In patent US7879900B2, “3-aminocarbazole compounds, pharmaceutical composition containing the same and method for the preparation thereof” (Aziende Chimiche Riunite Angelini Francesco A.C.R.A.F. …, priority 2005, dated 2011):

Key:
production of PGE2 = assay: Inhibition of PGE2 production in IL-1β-stimulated A549 cells (EIA); assay type: cell-based; details: Homo sapiens, IL-1β 1 ng/ml, 18 hours; for inhibition at 10 µM: compound 10 μM, na = not active at the experimental concentration; for IC50: negative logarithm of IC50, read-out: pIC50 PGE2 (converted)
Excerpt: (§1) This test allows evaluation of the inhibitory capability on the production of the PGE2 prostaglandins and the selectivity relative to the production of the PGF2α prostaglandins.
(§2) The cell line A549, human pulmonary adenocarcinoma, was used, which is particularly sensitive to stimulation with pro-inflammatory cyokines, for instance IL-1β, and, in response to this stimulation, is particularly active in the production and release of two prostanoids: PGE2 and PGF2α (Thoren S. Jakobsson P-J, 2000).
(§3) The cells were stimulated with IL-1β, (1 ng/ml) and simultaneously treated with the test compound for 18 hours in an appropriate culture medium (DMEM—Dulbecco's Modified Eagle's Medium) supplemented with 5% foetal calf serum and L-glutamine (4 mM final) in an incubator at 37° C. and at a CO2 concentration of 5%.
(§4) After the incubation, the amount of PGE2 and PGF2α produced and released into the supernatant were assayed using an EIA kit (produced and sold by Cayman Chemicals, Ann Arbor, Mich., USA).
(§5) The comparative compounds used were indomethacin (Sigma-Aldrich), a non-steroidal anti-inflammatory drug that inhibits in equal measure both PGE2 and PGF2α, and also the compounds of formula (I) in which R1=CH3CH2, R2=OH, R3=R4=R5=R6=X=Y=H (comparative compound A) and R1=CH3CH2, R2=SCH3, R3=R4=R5=R6=X=Y=H (comparative compound B). […]

production of PGF2α = assay: Inhibition of PGF2α production in IL-1β-stimulated A549 cells (EIA); assay type: cell-based; details: Homo sapiens, IL-1β 1 ng/ml, 18 hours; for inhibition at 10 µM: compound 10 μM, na = not active at the experimental concentration; for IC50: negative logarithm of IC50, read-out: pIC50 PGF2α (converted)
Excerpt: as §1, §2, §3, §4, §5

production of PGI2 = assay: Test on human primary endothelial cells (HUVEC): inhibition of PGI2 production; assay type: cell-based; details: for Inhibition (%) of PGI2: compound at LogM −5, relative to control
Description: This test allows evaluation of the capability of the compounds of the invention to inhibit the production of PGI2.
The absence of inhibitory activity on this prostanoid can ensure maintenance of the vasoprotective action of the PGI2 prostanoids and provide useful pharmacological information regarding the absence of adverse side effects on the endothelium.
The action of the test compounds is evaluated in HUVEC cells under basal conditions and conditions of stimulation (J. Immunol. 1989, Jun. 1; 142(11): 3993-9).
The results are given as a percentage of inhibition relative to the control enzymatic activity.
Indomethacin is used as reference compound.

Row | SMILES | inhibition at 10 µM (production of PGE2) | inhibition at 10 µM (production of PGF2α) | melting point | IC50 (production of PGE2) | IC50 (production of PGF2α) | Inhibition (%) of PGI2 (production of PGI2) | IC50 (production of PGI2; Homo sapiens, PGI2, printed as a negative logarithmic figure, read-out: IC50 (comparison compound) (converted))
1 | CCn1c2ccccc2c2cc(NC(=O)c3c(C)cccc3C)ccc21 [Compound 5, N-(9-ethyl-9H-carbazol-3-yl)-2,6-dimethylbenzamide] | 93% | 60% | 192 to 193 °C |  |  |  | 
2 | CC(C)n1c2ccccc2c2cc(NC(=O)c3ccccc3Cl)ccc21 [Compound 2, 2-chloro-N-[9-(1-methylethyl)-9H-carbazol-3-yl]benzamide] | 90% | 66% | 195 °C | 794 nM | 10000 nM | 31% | 
3 | CCn1c2ccccc2c2cc(NC(=O)c3ccccc3C(F)(F)F)ccc21 [Compound 4, N-(9-ethyl-9H-carbazol-3-yl)-2-(trifluoromethyl)benzamide] | 67% | 0% | 206 to 207 °C | 631 nM | 100000 nM | 21% | 
4 | COc1ccc2c(c1)c(CC(=O)O)c(C)n2C(=O)c1ccc(Cl)cc1 [indomethacin, reference compound] | 100% | 100% |  | 5.01 nM | 2.51 nM |  | 10 nM
5 | Cn1c2ccccc2c2cc(NC(=O)c3ccccc3Cl)ccc21 [Compound 1, 2-chloro-N-(9-methyl-9H-carbazol-3-yl)benzamide] | 59% | 27% | 206 °C |  |  |  | 
6 | O=C(Nc1ccc2c(c1)c1ccccc1n2Cc1ccccc1)c1ccccc1Cl [Compound 3, 2-chloro-N-[9-(phenylmethyl)-9H-carbazol-3-yl]benzamide] | 86% | 7% |  | 1260 nM | > 100000 nM |  | 
7 | CCn1c2ccccc2c2cc(NC(=O)c3ccccc3O)ccc21 [Compound A, N-(9-ethyl-9H-carbazol-3-yl)-2-hydroxybenzamide, reference compound] | 88% | 84% |  |  |  |  | 
